The source made the active and inactive calls.
Tests used:
[1] = intracellular Trypanosoma cruzi inhibitors in host cells – cell-based, plate reader, cherry-pick samples, set 3, dose response (AID 651818); type: functional;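 also: compounds incubated with infected cells for about four days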
[2] = target: T1, Probable nicotinate-nucleotide adenylyltransferase (Staphylococcus aureus (strain N315), UniProt P65502); type: functional, Staphylococcus aureus subsp. aureus N315; conditions: read-out: IC50_Mean;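 as to IC50 Mean: confirmatory dose-response retesting of NadD inhibitor hits first found in an ultra-high-throughput screen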
[3] = target: T1, Probable nicotinate-nucleotide adenylyltransferase; type: functional, Staphylococcus aureus subsp. aureus N315
[4] = target: T2, Trace amine-associated receptor 1 (Homo sapiens, UniProt Q96RJ0); experiment: Counterscreen for agonists of the human trace amine associated receptor 1 (hTAAR1): Fluorescence-based cell-based high throughput dose response assay to identify hTAAR1 agonist that also desensitize TAAR1 receptor response.; type: functional
T2 sequence (Q96RJ0 whole entry): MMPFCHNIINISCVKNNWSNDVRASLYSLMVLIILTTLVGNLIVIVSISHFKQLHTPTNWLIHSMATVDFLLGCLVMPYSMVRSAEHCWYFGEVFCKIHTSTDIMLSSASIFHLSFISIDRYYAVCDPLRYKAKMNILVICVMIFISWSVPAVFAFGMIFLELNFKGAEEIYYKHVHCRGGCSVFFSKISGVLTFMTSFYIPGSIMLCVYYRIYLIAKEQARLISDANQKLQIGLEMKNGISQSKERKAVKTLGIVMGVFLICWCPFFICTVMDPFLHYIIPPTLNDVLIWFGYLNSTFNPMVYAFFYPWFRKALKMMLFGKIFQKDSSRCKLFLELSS

cells [5] = type: functional, cell-based
cells [6] = type: functional, cell-based; remark: listed apart in the source
[7] = target: T2, Trace amine-associated receptor 1; experiment: Fluorescence-based cell-based high throughput dose response assay to identify agonists of the human trace amine associated receptor 1 (TAAR1).; type: functional
[8] = Fluorescence-based cell-based high throughput dose response assay for inhibitors of the interaction of nucleotide-binding oligomerization domain containing 2 (NOD2) and the receptor-interacting serine-threonine kinase 2 (RIPK2).; type: functional; conditions: Homo sapiens
cells [9] = type: functional, cell-based; remark: listed apart in the source
[10] = target: T3, Microphthalmia-associated transcription factor (Homo sapiens, UniProt O75030); experiment: reducers of TRPM1 reporter luminescence, concentration series – cell-based, SK-MEL-5, cherry-picked, set 3, MITF inhibitor project, dose response (AID 493073); type: functional;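 also: SK-MEL-5 melanoma cells with luciferase driven by the MITF target TRPM1 promoter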
T3 sequence (O75030 whole entry): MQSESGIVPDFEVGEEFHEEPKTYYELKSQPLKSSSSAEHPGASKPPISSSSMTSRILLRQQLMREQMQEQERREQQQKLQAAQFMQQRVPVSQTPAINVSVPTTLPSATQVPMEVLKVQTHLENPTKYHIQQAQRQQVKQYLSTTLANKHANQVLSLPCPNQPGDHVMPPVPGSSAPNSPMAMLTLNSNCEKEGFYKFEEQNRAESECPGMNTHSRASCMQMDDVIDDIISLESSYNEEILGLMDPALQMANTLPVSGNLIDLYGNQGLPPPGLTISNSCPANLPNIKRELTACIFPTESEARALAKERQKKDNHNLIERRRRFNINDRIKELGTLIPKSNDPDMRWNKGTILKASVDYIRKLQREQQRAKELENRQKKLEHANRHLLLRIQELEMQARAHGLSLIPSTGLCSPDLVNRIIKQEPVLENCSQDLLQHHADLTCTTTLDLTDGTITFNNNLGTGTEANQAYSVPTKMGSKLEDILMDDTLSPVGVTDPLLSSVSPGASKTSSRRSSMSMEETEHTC

Protein RecA = target: T4, Protein RecA (Mycobacterium tuberculosis, UniProt P9WHJ3); experiment: Fluorescence Cell-Free Homogeneous Dose Retest to Identify Inhibitors of RecA-Intein Splicing Activity. [Related pubchem assays (depositor defined):AID2097, AID2223, AID489010, AID492950]; type: functional
T4 sequence (P9WHJ3 whole entry): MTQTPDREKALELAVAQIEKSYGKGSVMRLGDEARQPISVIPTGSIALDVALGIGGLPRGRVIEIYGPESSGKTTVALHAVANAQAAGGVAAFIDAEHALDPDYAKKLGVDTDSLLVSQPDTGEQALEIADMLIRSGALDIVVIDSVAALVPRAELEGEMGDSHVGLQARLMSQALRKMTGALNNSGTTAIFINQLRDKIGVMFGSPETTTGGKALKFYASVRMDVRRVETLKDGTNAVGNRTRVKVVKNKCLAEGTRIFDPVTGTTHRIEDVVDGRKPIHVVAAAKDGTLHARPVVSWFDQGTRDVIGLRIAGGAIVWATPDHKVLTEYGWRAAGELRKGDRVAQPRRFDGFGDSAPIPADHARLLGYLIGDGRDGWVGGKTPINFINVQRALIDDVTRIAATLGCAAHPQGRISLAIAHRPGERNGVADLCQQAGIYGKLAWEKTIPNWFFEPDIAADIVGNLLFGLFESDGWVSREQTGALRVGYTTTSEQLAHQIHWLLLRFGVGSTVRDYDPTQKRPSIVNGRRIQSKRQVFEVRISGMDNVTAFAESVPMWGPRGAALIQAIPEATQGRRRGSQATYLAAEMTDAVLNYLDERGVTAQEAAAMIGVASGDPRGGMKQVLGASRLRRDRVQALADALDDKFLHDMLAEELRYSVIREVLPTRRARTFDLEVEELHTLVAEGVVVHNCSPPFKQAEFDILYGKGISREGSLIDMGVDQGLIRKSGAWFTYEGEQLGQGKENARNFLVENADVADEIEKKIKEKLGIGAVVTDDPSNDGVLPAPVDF

cells [11] = type: functional, cell-based; remark: listed apart in the source
[12] = Luminescence Cell-Based Dose Retest to Confirm Inhibitors of Cancer Stem Cells. [Related pubchem assays (depositor defined):AID2717, AID2721]; type: functional; conditions: Homo sapiens
[13] = loss of viability in HepG2 cells – cell-based, CellTiter-Glo, cherry-picked, cytotoxicity control for Shn3 inhibitor project, dose response (AID 624134); type: functional
[14] = non-specific 3'UTR reporter inhibition in Clone20-Shn3RL – cell-based, Renilla luciferase, cherry-picked, counter-screen for Shn3 inhibitor project, dose response (AID 624133); type: functional
[15] = target: T5, Replicative DNA helicase DnaB (Mycobacterium tuberculosis, UniProt P9WMR3); experiment: DnaB intein splicing inhibitors, dose response, biochemical, cell-free fluorescence (AID 449749); type: functional
T5 sequence (P9WMR3 whole entry): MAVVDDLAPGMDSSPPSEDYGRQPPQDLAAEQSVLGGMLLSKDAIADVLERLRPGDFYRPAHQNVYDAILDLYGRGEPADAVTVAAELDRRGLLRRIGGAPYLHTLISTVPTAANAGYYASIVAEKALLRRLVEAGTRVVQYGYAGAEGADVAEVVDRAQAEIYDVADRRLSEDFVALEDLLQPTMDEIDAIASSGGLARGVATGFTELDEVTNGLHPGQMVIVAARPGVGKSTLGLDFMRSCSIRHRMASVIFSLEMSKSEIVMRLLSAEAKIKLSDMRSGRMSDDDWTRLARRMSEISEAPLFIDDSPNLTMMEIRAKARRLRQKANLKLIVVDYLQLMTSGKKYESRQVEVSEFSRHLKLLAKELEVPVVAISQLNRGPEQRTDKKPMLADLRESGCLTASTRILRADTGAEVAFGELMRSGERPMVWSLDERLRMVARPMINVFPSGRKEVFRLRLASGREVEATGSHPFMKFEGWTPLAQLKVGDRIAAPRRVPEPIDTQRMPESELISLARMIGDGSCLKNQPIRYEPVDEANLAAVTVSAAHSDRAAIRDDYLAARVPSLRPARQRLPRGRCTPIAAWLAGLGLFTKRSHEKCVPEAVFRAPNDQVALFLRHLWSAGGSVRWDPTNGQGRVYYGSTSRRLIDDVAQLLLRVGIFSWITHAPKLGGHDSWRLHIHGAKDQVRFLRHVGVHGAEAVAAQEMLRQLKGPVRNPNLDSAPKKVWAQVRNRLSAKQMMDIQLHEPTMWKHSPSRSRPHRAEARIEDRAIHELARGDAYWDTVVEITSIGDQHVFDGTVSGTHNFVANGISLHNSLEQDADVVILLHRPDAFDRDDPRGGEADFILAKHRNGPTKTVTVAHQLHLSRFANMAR

[16] = reduction of Shn3 3'UTR-driven luciferase in osteoblasts – cell-based, Clone20 osteoblasts, firefly luciferase, cherry-picked, dose response (AID 624132); type: functional;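 also: firefly luciferase luminescence from reporter carrying the Shn3 3'UTR in osteoblasts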
Paired box protein Pax-8 = Paired box protein Pax-8 (Homo sapiens, UniProt Q06710); experiment: PAX8 transcriptional activity inhibition in RMG-I – RMG-I cells, luciferase, cherry-pick, dose response (AID 687027); type: functional, cell-based;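 also: luciferase reporter driven by Pax8 target thyroperoxidase promoter measured by SteadyGlo luminescence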
[17] = HEK-293T cell viability reduction – luminescence, B-cell screen hits, cytotoxicity control for BCR NF-kB inhibitor project, dose response (AID 489021); type: functional, cell-based;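 also: HEK-293T cells carrying an NF-kB luciferase reporter; cells exposed to compound for about 14 hours before viability readout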
Protein Wnt-3a = Protein Wnt-3a (Mus musculus, UniProt P27467); experiment: antagonism of Wnt3a pathway luciferase reporter – Wnt-LIGHT cells, luminescence, selectivity assay for Gli-SUFU antagonist project, dose response (AID 651570); type: functional; conditions: read-out: IC50_Mean;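 also: Wnt-LIGHT reporter cells stimulated with conditioned medium from Wnt3a-producing cells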
[18] = target: Photoreceptor-specific nuclear receptor (Homo sapiens, UniProt Q9Y5X4); type: functional, cell-based;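 also: CHO-S cells with Gal4-NCOR and VP16-NR2E3 two-hybrid luciferase reporter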
[19] = target: T6, DNA repair protein RAD52 homolog (Homo sapiens, UniProt P43351); type: functional, biochemical
T6 sequence (P43351 whole entry): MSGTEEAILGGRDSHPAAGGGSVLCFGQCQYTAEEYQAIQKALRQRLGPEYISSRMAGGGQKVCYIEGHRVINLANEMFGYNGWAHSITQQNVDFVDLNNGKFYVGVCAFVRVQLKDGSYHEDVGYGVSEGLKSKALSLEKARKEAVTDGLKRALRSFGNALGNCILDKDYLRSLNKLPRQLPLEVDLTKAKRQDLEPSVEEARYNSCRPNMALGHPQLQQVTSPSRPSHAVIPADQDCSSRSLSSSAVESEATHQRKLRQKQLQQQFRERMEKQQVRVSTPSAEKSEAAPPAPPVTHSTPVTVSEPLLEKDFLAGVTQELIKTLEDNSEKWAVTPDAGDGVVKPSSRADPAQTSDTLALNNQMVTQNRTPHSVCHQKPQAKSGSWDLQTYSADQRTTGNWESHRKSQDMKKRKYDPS

T1 sequence (P65502 whole entry): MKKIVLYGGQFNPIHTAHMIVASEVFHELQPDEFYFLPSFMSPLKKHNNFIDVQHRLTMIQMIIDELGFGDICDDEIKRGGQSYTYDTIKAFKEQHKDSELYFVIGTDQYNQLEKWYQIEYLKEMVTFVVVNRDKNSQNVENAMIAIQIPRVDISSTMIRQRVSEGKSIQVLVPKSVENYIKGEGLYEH
Chain of Protein Wnt-3a (P27467 whole entry, the tested form may be a part): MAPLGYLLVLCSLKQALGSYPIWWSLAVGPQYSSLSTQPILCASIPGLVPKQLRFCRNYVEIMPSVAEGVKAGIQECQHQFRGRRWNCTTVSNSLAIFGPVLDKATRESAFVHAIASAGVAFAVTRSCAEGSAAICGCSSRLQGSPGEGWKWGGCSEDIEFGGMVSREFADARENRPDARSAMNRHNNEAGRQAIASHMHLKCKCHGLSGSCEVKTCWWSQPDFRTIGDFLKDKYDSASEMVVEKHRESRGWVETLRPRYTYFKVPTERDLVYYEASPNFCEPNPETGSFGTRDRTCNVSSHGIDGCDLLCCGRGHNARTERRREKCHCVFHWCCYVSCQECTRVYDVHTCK
Chain of Paired box protein Pax-8 (Q06710 whole entry): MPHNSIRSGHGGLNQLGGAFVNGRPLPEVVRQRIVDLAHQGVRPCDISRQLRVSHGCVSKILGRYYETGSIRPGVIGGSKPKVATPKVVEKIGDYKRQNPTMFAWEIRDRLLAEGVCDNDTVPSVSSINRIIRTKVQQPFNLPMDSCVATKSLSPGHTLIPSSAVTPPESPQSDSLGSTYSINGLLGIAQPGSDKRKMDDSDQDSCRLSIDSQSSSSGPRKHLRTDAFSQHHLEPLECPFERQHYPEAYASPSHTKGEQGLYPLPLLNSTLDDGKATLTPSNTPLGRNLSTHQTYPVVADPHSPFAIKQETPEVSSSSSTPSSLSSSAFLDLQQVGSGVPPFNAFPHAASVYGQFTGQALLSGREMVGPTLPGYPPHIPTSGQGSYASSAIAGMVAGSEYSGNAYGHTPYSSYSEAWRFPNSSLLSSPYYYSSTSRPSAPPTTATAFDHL
Chain of Photoreceptor-specific nuclear receptor (Q9Y5X4 whole entry, the tested form may be a part): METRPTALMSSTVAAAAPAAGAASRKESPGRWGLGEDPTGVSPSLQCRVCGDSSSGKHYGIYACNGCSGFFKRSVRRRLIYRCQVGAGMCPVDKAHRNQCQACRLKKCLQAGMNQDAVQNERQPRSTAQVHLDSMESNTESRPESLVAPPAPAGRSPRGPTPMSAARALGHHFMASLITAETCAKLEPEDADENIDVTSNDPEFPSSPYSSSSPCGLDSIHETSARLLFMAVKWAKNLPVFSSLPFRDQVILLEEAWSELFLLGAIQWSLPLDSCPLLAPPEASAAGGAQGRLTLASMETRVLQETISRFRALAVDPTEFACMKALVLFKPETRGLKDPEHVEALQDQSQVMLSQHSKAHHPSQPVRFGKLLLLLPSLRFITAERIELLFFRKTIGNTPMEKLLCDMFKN

COc1ccc(NC(=O)Nc2ccc3c(c2)CC(=O)N([C@H](C)CO)C[C@@H](C)[C@@H](CN(C)Cc2ccc(Cl)c(Cl)c2)O3)cc1
AC50 [1]: 3.35 µM (active)

Cc1ccc(S(=O)(=O)Nc2cccc3c2O[C@@H](CN(C)Cc2ccc(C(=O)Nc4ccccc4N)cc2)[C@H](C)CN([C@H](C)CO)C3=O)cc1
AC50 [1]: 3.87 µM (active)

Cc1ccc(-n2nc(C)c(/C=N/c3ccc(S(=O)(=O)Nc4nccs4)cc3)c2O)cc1C
IC50 [2]: 17.4 µM (active) | IC50 [3]: 4.08 µM (active)

O=C(CC1Nc2ccccc2NC1=O)NCCc1ccccc1 (stereo unspecified)
IC50 [4]: 7.18 µM (active) | EC50 (cells [5]): > 29.9 µM (inactive) | IC50 (cells [6]): > 29.9 µM (inactive) | EC50 [7]: 2.27 µM (active)

COc1ccccc1-c1cc(C(F)(F)F)nc(S(C)(=O)=O)n1
IC50 [8]: 3.63 µM (active) | EC50 (cells [9]): > 350 µM (not active) | AC50 [10]: 6.81 µM (active) | EC50 (Protein RecA): 10 µM (active) | EC50 (cells [11]): > 350 µM (not active) | AC50 [12]: 5.07 µM (active) | AC50 [13]: 37.6 µM (active) | AC50 [14]: 12.4 µM (active) | AC50 [15]: 5.35 µM (active) | AC50 [16]: 4.06 µM (active)

C[C@@H]1CN([C@H](C)CO)C(=O)c2cccc(NC(=O)Nc3ccc(C(F)(F)F)cc3)c2O[C@@H]1CN(C)S(=O)(=O)c1ccc(Cl)cc1
AC50 [1]: 3.52 µM (active)

CCN(CC(=O)Nc1c(F)cccc1F)C(=O)c1cc(S(=O)(=O)N(CC)CC)ccc1N1CCCCC1
AC50 (Paired box protein Pax-8): 3.02 µM (active) | IC50 [17]: > 80 µM (inactive) | IC50 (Protein Wnt-3a): 11.4 µM (active)

Cc1ccc(Cn2nnc3c(O)nc(C4CCN(S(=O)(=O)c5ccc(S(=O)(=O)NC6CC6)cc5)CC4)nc32)cc1
IC50 [2]: 54.4 µM (active) | IC50 [3]: 23.7 µM (active)

O=C(C(=Cc1ccccc1)CN1CCCCC1)c1ccccc1
IC50 [18]: 3.73 µM (active) | AC50 [13]: 8.28 µM (active) | AC50 [14]: 5.08 µM (active) | AC50 [16]: 3.18 µM (active)

C[C@H](CO)N1C[C@H](C)[C@H](CN(C)Cc2ccc(Cl)c(Cl)c2)Oc2ccc(NC(=O)Nc3ccc(C(F)(F)F)cc3)cc2C1=O
AC50 [1]: 3.24 µM (active)

O=C(O)/C=C/C(=O)NCCc1cccc(Cl)c1
IC50 [4]: 3.77 µM (active) | EC50 (cells [5]): > 29.9 µM (inactive) | IC50 (cells [6]): > 29.9 µM (inactive) | EC50 [7]: 0.7 µM (active)

Cc1ccc(S(=O)(=O)Nc2ccc(Nc3nccn4c(-c5ccccc5Oc5ccccc5)cnc34)cc2)cc1
IC50 [2]: 20.1 µM (active) | IC50 [3]: 10.4 µM (active)

O=C(NCC1CCCO1)c1ccc(NC(=O)c2ccc(Br)cc2)cc1 (stereo unspecified)
IC50 [4]: > 29.9 µM (inactive) | EC50 (cells [5]): > 29.9 µM (inactive) | IC50 (cells [6]): > 29.9 µM (inactive) | EC50 [7]: 1.45 µM (active)

COc1ccc(CC2=NCCc3cc(OC)c(OC)cc32)cc1OC
AC50 [19]: 15.2 µM (active)

Cc1cccc2sc(N(CCCN(C)C)C(=O)c3ccc(Cl)s3)nc12
AC50 [19]: 24.9 µM (active)
